The source of these data is US7291629B2, “Neurotrophin antagonist compositions” (Painceptor Pharma Corporation, priority 1996, dated 2007).

Where two headings read alike, the source gives them in different places.

Test [1] relates to chick embryo dorsal root ganglia (DRG) neurons. In words: Inhibition of neurite outgrowth (NGF-stimulated DRG neurons). The class given is cell-based. As to conditions: 0.25 ng/mL NGF, NGF Control 1.000. As for the experimental part:
Eight-day chick embryo dorsal root ganglia (DRG) were freed of meninges and removed aseptically. The DRG were kept at 4° C. at all times. Ganglia from six embryos (40-50 per embryo) were washed in Ca^2+-and Mg^2+-free Gey's balanced salt solution (Gibco) and exposed to 0.01% trypsin (Worthington) in the same solution for 10 min at 37° C. A half-volume of phosphate-buffered Gey's balanced salt solution was added for a further 5 min at 37° C. and the reaction was then terminated with one-third volume of Ham's F12 medium (Gibco) containing 5% fetal calf serum (FCS, Gibco). The ganglia were then triturated using a 5 mL narrow-tip pipette to a single cell suspension. Following filtration through […] nylon mesh (Small Parts Inc., Miami, Fla.) in a Millipore chamber to remove clumps, the cell suspension was washed through a 500-ml FCS undercut (700×g for 5 min at 4° C.) and resuspended in 4 mL of Ham's F12 medium plus 5% FCS. The cell suspension was then preplated on a 100-mm Flacon culture dish and incubated for 45-60 min at 37° C. in a 5% CO2 humidified atmosphere. Cells enriched in neurons were decanted for the bioassay, since non-neuronal cells of DRG preferentially stick to the culture substrate.
The inside wells of 96-well Falcon microculture plates were coated with polylysine (0.1 mg/mL) (Sigma) for 4 h at 37° C. (the outside wells were filled with distilled water to provide humidity) and, following a rinse with tissue culture media, […] of neuron-rich cell suspension was added to each well at 10^5 cells/mL. Ninety (90) […] of NGF solution (prepared in tissue culture media) was then added to each well to a final concentration of 0.25 ng/mL NGF per well. […]
The bioassays were read using a Leitz Diavert microscope with phase optics. […] At least 100 neurons per well were counted, and the assay was scored as the ratio of cells bearing neurites greater than one cell diameter to total viable (phase bright) cells.

A further test concerns L5/L6 Nerve Ligated rats. Briefly: Tactile allodynia, nerve ligation injury model (von Frey paw withdrawal threshold).
For another test, the system named is nerve-ligated rats. In words: Nerve-ligated injury model of neuropathic pain, i.c.v. administration (tactile allodynia, thermal hyperalgesia, acute nociception). The class given is in vivo, rat. The conditions noted are these: given i.c.v.
Test [2] relates to L5/L6 Nerve Ligated and Sham-Operated Rats. As to conditions: for A50(95% C.L.) Tail Flick- Ligated: L5/L6 nerve ligated rats; for A50(95% C.L.) Tail Flick- Sham: sham-operated rats.
Test [3] has the same test system. The conditions noted are these: for A50(95% C.L.) Hot Plate- Ligated: L5/L6 nerve ligated rats; for A50(95% C.L.) Hot Plate- Sham: sham-operated rats.

As for `O=C1c2cccc3cc([N+](=O)[O-])cc(c23)C(=O)N1CCO` [Compound A], the entries for the “Ratio (cells bearing neurites greater than one cell diameter to total viable cells)” value in test [1] (5 μM compound), in test [1] (50 μM compound) and in test [1] (100 μM compound) were 1.1, 0.16 and 0.016, respectively. Moreover, the figures for the “A50(95% C.L.) Allodynia- Ligated” value in the test on L5/L6 Nerve Ligated rats (i.p.) and with L5/L6 Nerve Ligated rats (i.th) were 38 mg/kg and 34.6 µg, respectively. In the test on nerve-ligated rats, the “Activity in nerve-ligated injury model of neuropathic pain” value is listed as “not active”. In addition, the “A50(95% C.L.) Tail Flick- Ligated” value in test [2] (i.p.) was determined as 27.8 mg/kg; in test [2] (i.th), 78 µg. For the same molecule, the results for the “A50(95% C.L.) Tail Flick- Sham” value in test [2] (i.p.) and in test [2] (i.th) were 25.7 mg/kg and 34 µg, respectively. Besides, the results for the “A50(95% C.L.) Hot Plate- Ligated” value in test [3] (i.p.) and in test [3] (i.th) were 18.6 mg/kg and 14.8 µg, respectively. Also, the “A50(95% C.L.) Hot Plate- Sham” value in test [3] (i.p.) was determined as 34.9 mg/kg; in test [3] (i.th), 48.1 µg.
